Reference: article PMC7766104, “Inhibition of Biofilm Formation by Modified Oxylipins from the Shipworm Symbiont Teredinibacter turnerae” (Marine Drugs, 2020)
Converted amounts (≈) assume the structure as drawn. “Also recorded” adds a separate entry of the source.

Assays:
[1] = tested on: S. epidermidis RP62A (ATCC 35984) biofilm formation; assay: Biofilm inhibition assay (WGA488 staining of formed biofilm); type: cell-based, Staphylococcus epidermidis; conditions: for Selectivity Index (MICPlanktonic/MBICBiofilm): S. epidermidis RP62A, MIC planktonic / MBIC biofilm; for MBIC S. epidermidis RP62A (ATCC 35984): lowest concentration causing >98% inhibition of biofilm formation, two independent trials in quadruplicates
From the text: (§1) All seven compounds were subjected to a panel of bioactivity assays to assess their effects on staphylococcal pathogens and mammalian cells (Table 2). […] This fluorescent stain specifically binds to sialic acid and the N-acetylglucosaminyl residues of the biofilm. […] Growth inhibition in the microbial pathogens was quantified by monitoring the conversion of resazurin to the fluorescent resorufin product.
(§2) The biofilm inhibition assay was done according to the method of Skogman et al. (2012). […] A single colony from the CRA plate was transferred in 50 mL trypticasein soy broth supplemented with glucose (TSBg) and grown overnight at 35 °C, 150 rpm. The turbidity of the culture was adjusted to match the 0.5 McFarland standard (1 × 10^8 cells/mL) and diluted 100-fold prior to inoculation in a 96-well plate. […] TSBg served as the negative control, and positive controls were chloramphenicol (Sigma-Aldrich) for planktonic cells and dispersin B (Kane Biotech) for biofilms. Dispersin B is a 40 kDa glycoside hydrolase which dissolves mature bacterial biofilms. The plates were incubated for 20 h at 37 °C without shaking to facilitate biofilm formation. At the end of the incubation period, the planktonic suspension was transferred to another 96-well plate to assess cell viability. A 20 µL-aliquot of 0.02% resazurin was added to each well and incubated for 30 min at 37 °C, 150 rpm. Fluorescence was measured using a 530 nm excitation filter and a 590 nm emission filter. To quantify the formed biofilm, 100 µL-aliquot of wheat germ agglutinin Alexa Fluor 488 (WGA488) probe (50 µg/mL) was added to each well of the original plate and incubated in the dark at 4 °C for 5 h. At the end of incubation, the plate was washed with sterile PBS (3×) and air-dried at room temperature to remove the unbound WGA488 probe. Bound stain to the biofilm was dissolved in 33% glacial acetic acid and quantified by fluorescence measurement at 485 nm/420 nm excitation filters, and 528 nm/520 nm emission filters. […] This was done in two independent trials with four independent replicates.

[2] = tested on: planktonic S. epidermidis RP62A (ATCC 35984); assay: Planktonic cell viability, resazurin (from biofilm assay plate); type: cell-based, Staphylococcus epidermidis; conditions: for MIC: Staphylococcus epidermidis, ATCC35984, planktonic cells, lowest concentration with >98% growth inhibition; for bioactivity against microbial pathogens or mammalian cells (in words): statement covers the whole panel of Table 2 (staphylococcal pathogens and MDCK cells)
From the text: as §1, §2

[3] = tested on: Methicillin-resistant S. aureus (ATCC 43300); assay: Antimicrobial microdilution assay (resazurin); type: cell-based; conditions: Staphylococcus aureus; planktonic; >98% growth inhibition; 24 h; read-out: MIC Methicillin-Resistant S. aureus (ATCC 43,300)
Experimental: as §1
(§3) After 24 h of incubation, 0.02% resazurin (20 µL) was added to each well, and the fluorescence was measured at 530 nm excitation and 590 nm emission. MIC is the lowest concentration at which there was no reduction of the rezasurin dye, equivalent to 98% inhibition of microbial growth. Assays were done in two independent trials with four independent replicates.

S. aureus (ATCC 6538) = assay: Antimicrobial microdilution assay (resazurin); type: cell-based; conditions: Staphylococcus aureus, ATCC6538; planktonic; >98% growth inhibition; 24 h
Experimental: as §1, §3

[4] = tested on: MDCK NBL-2 (ATCC CCL-34) cells; assay: cells; conditions: for IC50: Canis lupus familiaris, MDCK, 72 h, read-out: IC50 MDCK NBL-2 (ATCC CCL-34)
From the text: as §1
The mammalian antiproliferative assay was done according to Lacerna et al. (2019) and modified from the method of Mossman (1983). […] At 72 h post-incubation, the cells were treated with MTT and the absorbance at 570 nm was read. The IC50 was calculated using GraphPad Prism 5 based on a 4-point sigmoidal non-linear regression analysis of cell viability vs. log concentration of the inhibitor. The assay was done in two independent trials with four independent replicates.

Row | SMILES | inhibition of biofilm formation in S. epidermidis (in words) [1] | Selectivity Index (MICPlanktonic/MBICBiofilm) [1] | MBIC S. epidermidis RP62A (ATCC 35984) [1] | MIC [2] | MIC [3] | MIC (S. aureus (ATCC 6538)) | IC50 [4] | antimicrobial activity against planktonic S. epidermidis (in words) [2] | cytotoxicity / antiproliferative action in mammalian MDCK cells (in words) [4] | bioactivity against microbial pathogens or mammalian cells (in words) [2]
1 | CCCCCC1OC1C(O)CCCCCCCCCC(=O)O (stereo not shown) [Compound 1, 11-hydroxy-12,13-epoxy-octadecanoic acid] | inhibited biofilm formation | ~4 | 32 µg/mL | 128 µg/mL (≈ 407 µM) | > 128 µg/mL | > 128 µg/mL | 61.7 µg/mL (≈ 196 µM) | – | – | –
2 | CCCCC/C=C/C(=O)CCCCCCCC(=O)O [Compound 2, (E)-9-oxohexadec-10-enoic acid] | inhibited biofilm formation | ~1 | – | > 128 µg/mL | > 128 µg/mL | > 128 µg/mL | 33 µg/mL (≈ 123 µM) | – | – | –
3 | CCCCC/C=C/C(=O)CCCCCCCCCC(=O)O [Compound 3, (E)-11-oxooctadec-12-enoic acid] | inhibited biofilm formation; also recorded: potent but non-selective activity | ~1 | 16 µg/mL | 16 µg/mL (≈ 54 µM) | > 128 µg/mL | > 128 µg/mL | 13.6 µg/mL (≈ 45.9 µM) | showed antimicrobial activity | demonstrated cytotoxicity | –
4 | CCCCCCCCCCCCCCCC(=O)O [Compound 4, palmitic acid] | – | ~1 | >128 µg/mL | > 128 µg/mL | > 128 µg/mL | > 128 µg/mL | > 128 µg/mL | – | cytotoxic activity | did not show any significant bioactivity
5 | CCCCCCCCCCCCCCCCCC(=O)O [Compound 5, stearic acid] | – | ~1 | >128 µg/mL | > 128 µg/mL | > 128 µg/mL | > 128 µg/mL | > 128 µg/mL | – | – | did not show any significant bioactivity
6 | CCCCC[C@@H]1O[C@H]1CCCCCCCCCCC(=O)O [Compound 6, trans-12,13-epoxy-octadecanoic acid] | inhibited biofilm formation | >8 | 16 µg/mL | > 128 µg/mL | > 128 µg/mL | > 128 µg/mL | > 128 µg/mL | – | no antiproliferative action | –
7 | CCCCC/C=C\CCCCCCCCCCC(=O)O [Compound 7, 12(Z)-octadecenoic acid] | – | – | >128 µg/mL | – | – | – | – | – | – | –
8 | O=C(N[C@H](CO)[C@H](O)c1ccc([N+](=O)[O-])cc1)C(Cl)Cl [chloramphenicol] | – | – | – | 8 µg/mL (≈ 24.8 µM) | – | – | – | – | – | –
9 | Cc1onc(-c2ccccc2)c1C(=O)N[C@@H]1C(=O)N2[C@@H]1SC(C)(C)[C@@H]2C(=O)O [oxacillin] | – | – | – | – | 8 µg/mL (≈ 19.9 µM) | 0.5 µg/mL (≈ 1.25 µM) | – | – | – | –
